Experimental data reported in patent publication US11964990B2, “1,3,4,7-tetrahydro-2H-pyrrolo[3′,2′:5,6]pyrido[2,3-b][1,4]oxazepine bcl-2 inhibitors” (AbbVie Inc., priority 2022, dated 2024).

How the values were obtained:
RS4;11 cells = assay: Cell viability assay (CellTiter-Glo) in RS4;11 cell line; assay type: cell-based; details: 24 hours, 10% Human Serum, 50% decrease in cell viability
Procedure, shortened: (§1)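 RS4;11 or Molt-4 cells (3000 per well) in RPMI 1640 with 10% human serum treated with compound for 24 h, 5% CO2. Viability measured by CellTiter-Glo as percent of control; EC50 from sigmoidal dose-response curves.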

Molt-4 cells = assay: Cell viability counter screen assay (CellTiter-Glo) in Molt-4 cells; assay type: cell-based; details: 24 hours, 10% Human Serum, 50% decrease in cell viability
Procedure, shortened: as §1

EC50 (RS4;11 cells) | SMILES | EC50 (Molt-4 cells)
0.862 nM | CC1(C)CC(c2ccc(Cl)cc2)=C2CN3CCN(c4ccc(C(=O)NS(=O)(=O)c5ccc(NC[C@H]6CC[C@H](N7CCOCC7)CC6)c([N+](=O)[O-])c5)c(N5CCCOc6nc7[nH]ccc7cc65)c4)C[C@H]3COCCCO[C@@H]2C1 [Example 28, 4-((4aS,10aR)-14-(4-chlorophenyl)-12,12-dimethyl-1,2,4a,5,8,9,10a,11,13,15-decahydro-7H,12H-benzo[f]pyrazino[2,1-c][1,8]dioxa[4]azacycloundecin-3(4H)-yl)-2-(3,4-dihydro-2H-pyrrolo[3′,2′:5,6]pyrido[2,3-h][1,4]oxazepin-1(7H)-yl)-N-((4-((((1r,4r)-4-morpholinocyclohexyl)methyl)amino)-3-nitrophenyl)sulfonyl)benzamide] | 274 nM
3.73 nM | CC1(C)CC(c2ccc(Cl)cc2)=C2CN3CCN(c4ccc(C(=O)NS(=O)(=O)c5cnc(OC[C@]6(F)CC[C@@H](N7CCOCC7)CC6)c(Cl)c5)c(N5CCCOc6nc7[nH]ccc7cc65)c4)C[C@H]3COCCCO[C@@H]2C1 [Example 10, N-((5-chloro-6-(((1s,4s)-1-fluoro-4-morpholinocyclohexyl)methoxy)pyridin-3-yl)sulfonyl)-4-((4aS,10aR)-14-(4-chlorophenyl)-12,12-dimethyl-1,2,4a,5,8,9,10a,11,13,15-decahydro-7H,12H-benzo[f]pyrazino[2,1-c][1,8]dioxa[4]azacycloundecin-3(4H)-yl)-2-(3,4-dihydro-2H-pyrrolo[3′,2′:5,6]pyrido[2,3-b][1,4]oxazepin-1(7H)-yl)benzamide] | 1560 nM
2.95 nM | CO[C@H]1CC[C@H](CNc2ccc(S(=O)(=O)NC(=O)c3ccc(N4CCN5CC6=C(c7ccc(Cl)cc7)CC(C)(C)C[C@H]6OCCCOC[C@@H]5C4)cc3N3CCCOc4nc5[nH]ccc5cc43)cc2[N+](=O)[O-])OC1 [Example 13, 4-((4aS,10aR)-14-(4-chlorophenyl)-12,12-dimethyl-1,2,4a,5,8,9,10a,11,13,15-decahydro-7H,12H-benzo[f]pyrazino[2,1-c][1,8]dioxa[4]azacycloundecin-3(4H)-yl)-2-(3,4-dihydro-2H-pyrrolo[3′,2′:5,6]pyrido[2,3-b][1,4]oxazepin-1(7H)-yl)-N-((4-((((2R,5S)-5-methoxytetrahydro-2H-pyran-2-yl)methyl)amino)-3-nitrophenyl)sulfonyl)benzamide] | 1700 nM

SMILES | EC50 (RS4;11 cells) | EC50 (Molt-4 cells)
CC1(C)CC(c2ccc(Cl)cc2)=C2CN3CCN(c4ccc(C(=O)NS(=O)(=O)c5ccc(NC[C@H]6CC[C@H](N7CCOCC7)CO6)c([N+](=O)[O-])c5)c(N5CCCOc6nc7[nH]ccc7cc65)c4)C[C@H]3COCCCO[C@@H]2C1 [Example 37, 4-((4aS,10aR)-14-(4-chlorophenyl)-12,12-dimethyl-1,2,4a,5,8,9,10a,11,13,15-decahydro-7H,12H-benzo[f]pyrazino[2,1-c][1,8]dioxa[4]azacycloundecin-3(4H)-yl)-2-(3,4-dihydro-2H-pyrrolo[3′,2′:5,6]pyrido[2,3-b][1,4]oxazepin-1(7H)-yl)-N-((4-((((2R,5S)-5-morpholinotetrahydro-2H-pyran-2-yl)methyl)amino)-3-nitrophenyl)sulfonyl)benzamide] | 1.05 nM | 1450 nM
